Reference: PMC7132281 (Proceedings of the National Academy of Sciences of the …, 2020)

Biological target: T1, AtaC (Vnz_27310) (Streptomyces venezuelae, UniProt F2R7Z6, D269N)
T1 sequence (F2R7Z6 1-401 D269N): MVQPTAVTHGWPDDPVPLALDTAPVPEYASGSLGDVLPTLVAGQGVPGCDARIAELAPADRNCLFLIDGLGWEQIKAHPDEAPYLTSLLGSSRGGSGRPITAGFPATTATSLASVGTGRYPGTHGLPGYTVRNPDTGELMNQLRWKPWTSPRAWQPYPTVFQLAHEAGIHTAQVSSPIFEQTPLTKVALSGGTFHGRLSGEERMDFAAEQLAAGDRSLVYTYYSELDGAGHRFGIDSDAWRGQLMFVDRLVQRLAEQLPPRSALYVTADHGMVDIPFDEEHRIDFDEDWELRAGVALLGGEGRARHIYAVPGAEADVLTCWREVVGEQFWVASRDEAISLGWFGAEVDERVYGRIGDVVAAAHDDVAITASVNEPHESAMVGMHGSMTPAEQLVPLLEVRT
Assay: ITC
Format: binding

Structure (SMILES): Nc1ncnc2c1ncn2[C@@H]1O[C@@H]2COP(=O)(O)O[C@H]3[C@@H](O)[C@H](n4cnc5c(N)ncnc54)O[C@@H]3COP(=O)(O)O[C@H]2[C@H]1O [c-di-AMP]
- Kd: 949 ± 360 nM
